Experimental data: US10766940B2, “Brain penetrant amylin receptor based peptides for Alzheimer's disease” (The Governors of the University of Alberta, priority 2016, dated 2020)
Residues, ends and D or L forms follow the SMILES beside them. No end group written: not given here.

Experiments:
[1] = system: heterozygous CTR knockdown mice (50% depletion of amylin receptors); experiment: R5 brain uptake in heterozygous CTR knockdown mice; format: in vivo, mouse; conditions: Wt vs CTR knockdown mice, ip, 2 hr
Method: Mice were injected with a single dose and then sacrificed, and the brains were extracted after 2 hours from injection. Fluorescence in brains was quantified as previously described.

[2] = system: human neuroblastoma, SK-N-SH cells; experiment: Aβ1-42 cytotoxicity (MTT) in SK-N-SH cells; format: cell-based; conditions: Aβ1-42 20 μM
Method: f) To investigate the antagonistic activity of peptide fragments against Aβ cytotoxicity in vitro, (human fetal neurons) HFNs, human neuroblastoma, SK-N-SH cells and N2a mouse neuroblastoma cells were used. Cells were seeded to 5000 cells/well in a 96-well plate in MEM-10% FBS and DMEM/OptiMEM-5% FBS for overnight. Cells in culture media were preincubated for 8 h with or without AC253 or fragments R5, R14, R11, and followed by treatment with Aβ1-42 for 24 h. At the end of treatment, 20 μl of 5 mg/ml methylthiazolyldiphenyl-tetrazolium bromide (MTT) was added to each well, and incubated at 37° C. for 3 h. Medium was removed, 100 μl of MTT solvent (isopropanol with 4 mM HCl) added to each well, and the plates were incubated for 30 min at room temperature on a rotating shaker. Plates were analyzed on a microplate reader at a 562-nm wavelength.

[3] = system: Aβ plaques in TgCRND8 mice brains; experiment: Immunofluorescent-histological staining of Aβ plaques (6E10); format: in vivo, mouse; conditions: Tg AC253 vs Tg CSF
Method: (§1) A microcannula was stereotaxically inserted into the right cerebral ventricle (0.12 right lateral and 0.06 posterior to bregma, 3 mm deep) of isofluorane-anesthetized mice, and connected to an osmotic pump (Alzet; model 2004) implanted subcutaneously on the back of the mouse. The pump infused a solution of either aCSF or AC253 in aCSF into the ventricle at a rate of […] to yield an estimated concentration of 1 μM AC253 in the mouse CSF at equilibrium based upon the known CSF dynamics in the mouse brain (Di Pardo et al., 2012). The pump reservoir was replaced every 28 days for a total of 5-6 months. Animals were monitored on a daily basis for signs of treatment-related toxicity, such as poor grooming, lethargy, loss of bodyweight, and abnormal behavior. […]
For immunostaining, […] thick brain sections were cut using a Cryostat (Leica CM1850), fixed with 4% paraformaldehyde in PBS, permeabilized using 0.3% Triton X-100 and stained with Aβ (6E10), Iba1, and CTR antibody, followed by fluorescent secondary antibody (goat anti mouse Alexa Fluor-546 and donkey anti rabbit Alexa Fluor-488) and mounted in DAPI mounting media. Fluorescent microscopy images were acquired with an Axioplan-2 fluorescence microscope with AxioVision software (Carl Zeiss Ltd., Toronto, ON, Canada). Amyloid plaque size and area were analyzed with Image J.

TgCRND8 AD mouse model = experiment: Morris Water Maze, chronic icv infusion of AC253; format: in vivo
Method: Age-matched, wild-type littermate (C57BL/6 background) male or female mice were used. […] Heterozygous CTR (het CTR) mice (C57BL/6J background) with a 50% deletion of CTR were obtained from Drs. R. A. Davey and J. D. Zajac (Department of Medicine, Austin Health, University of Melbourne, Heidelberg, Victoria, Australia). Mice were housed individually under standard laboratory conditions (12/12-h light/dark cycle, lights on at 0600 h) with a room temperature of 21° C. Water and food were available ad libitum unless otherwise indicated. All tests were performed during the light phase between 0900 and 1600 h in accordance with institutional guidelines. The mice were 3 months old at the onset of testing.
as §1
The MWM apparatus consisted of a 2 m circular blue plastic pool filled with water (24-25° C.), which was rendered opaque by the addition of non-toxic white paint. […] The behavior of a mouse was recorded by a video camera connected to a video tracking system (HVS Image 2100, HVS Image, Buckingham, UK).
The pool was surrounded by a white curtain, and a mouse was released facing the wall at points (N, E, S, W) which were chosen semi-randomly. […] Memory was evaluated in probe trial, administered on day 8 as the first trial of the day. […] Memory for the platform location was expressed as the percent of time spent in TQ.

[4] = Lipophilicity, shake flask 1-octanol/water partition; format: physicochemical
Method: Peptides hydrophobicity was determined using the shake flask method and 1-octanol/water partition coefficient (log Po/w) was determined. […] Peptide concentration (area) in both phases (1-octanol and water) were analyzed by RP-HPLC. The final log Po/w value was calculated by dividing the concentration (C) of the peptide in the two phases as presented by the area under the peak (partition coefficients=C1-octanol/Cwater).

| Compound | brain uptake in relation to amylin receptor expression [1] | block of Aβ1-42 triggered cell death, SK-N-SH (MTT) [2] | number of Aβ plaques, total area of Aβ-positive profiles [3] | latencies to locate the hidden platform (MWM) (TgCRND8 AD mouse model; TgCRND8 mice at 8 months of age, after 5 months of icv treatment, vs littermates receiving CSF) | memory in probe trials for location of the target quadrant (TgCRND8 AD mouse model; TgCRND8 mice, 8 months of age) | memory deficits in MWM, Wt controls (TgCRND8 AD mouse model; wild-type littermate controls, icv AC253 or CSF, 8 months of age) | Partition coefficient [4] | logP [4] |
| --- | --- | --- | --- | --- | --- | --- | --- | --- |
| CC(C)C[C@H](NC(=O)[C@H](CCC(=O)O)NC(=O)[C@H](CCC(N)=O)NC(=O)[C@@H](N)CO)C(=O)N[C@@H](Cc1c[nH]cn1)C(=O)N[C@@H](CCCNC(=N)N)C(=O)N[C@@H](CC(C)C)C(=O)N[C@@H](CCC(N)=O)C(=O)N[C@H](C(=O)N[C@@H](Cc1ccc(O)cc1)C(=O)N1CCC[C@H]1C(=O)N[C@@H](CCCNC(=N)N)C(N)=O)[C@@H](C)O [R5] (H-SQELHRLQTYPR-NH2; N-terminus assumed) | proportional to the degree of amylin receptor expression | block the effect of Aβ1-42 | – | – | – | – | – | – |
| CC(C)C[C@H](NC(=O)[C@H](CCCNC(=N)N)NC(=O)CNC(=O)[C@@H](N)CC(C)C)C(=O)N[C@@H](CO)C(=O)N[C@@H](CCC(N)=O)C(=O)N[C@@H](CCC(=O)O)C(=O)N[C@@H](CC(C)C)C(=O)N[C@@H](Cc1c[nH]cn1)C(=O)N[C@@H](CCCNC(=N)N)C(=O)N[C@@H](CC(C)C)C(=O)N[C@@H](CCC(N)=O)C(=O)N[C@H](C(=O)N[C@@H](Cc1ccc(O)cc1)C(=O)N1CCC[C@H]1C(=O)N[C@@H](CCCNC(=N)N)C(=O)N[C@H](C(=O)N[C@@H](CC(N)=O)C(=O)N[C@H](C(=O)NCC(=O)N[C@@H](CO)C(=O)N[C@@H](CC(N)=O)C(=O)N[C@H](C(=O)N[C@@H](Cc1ccc(O)cc1)C(N)=O)[C@@H](C)O)[C@@H](C)O)[C@@H](C)O)[C@@H](C)O [AC253] | – | – | did not reveal significant difference | marked improvement in latencies to locate the hidden platform | enhanced and persistent memory in probe trials | no memory deficits | 1.05 | -1.2 |
| LGRLSQELHRLQTY (LGRLSQELHRLQTY-NH2) [R14] | – | block the effect of Aβ1-42 | – | – | – | – | – | – |
